Assay results from patent US10662481B2, “Methods for predicting response to HDACi/DNMTi combination in multiple myeloma” (INSERM (INSTITUT NATIONAL DE LA SANTÉ ET DE LA RECHERCHE …, priority 2014, dated 2020).

Assays:
Assay type in all cases: cell-based, human
Conditions in all cases: 0.5 μM decitabine, mean ± SD of viable cells, 3 experiments
XG-6 = assay: Cell viability of HMCLs by trypan blue exclusion (XG-6)
XG-5 = assay: Cell viability of HMCLs by trypan blue exclusion (XG-5)
XG-20 = assay: Cell viability of HMCLs by trypan blue exclusion (XG-20)
XG-7 = assay: Cell viability of HMCLs by trypan blue exclusion (XG-7)
LP1 = assay: Cell viability of HMCLs by trypan blue exclusion (LP1)

Nc1ncn([C@H]2C[C@H](O)[C@@H](CO)O2)c(=O)n1 [5-aza, 5-aza-2′-deoxycytidine]
Cell viability (%) Day 3 5-aza (XG-6): 90 ± 1%
Cell viability (%) Day 3 5-aza (XG-5): 65 ± 5%
Cell viability (%) Day 3 5-aza (XG-20): 91 ± 3%
Cell viability (%) Day 3 5-aza (XG-7): 90 ± 2%
Cell viability (%) Day 3 5-aza (LP1): 91 ± 2%
